From patent publication US20050031651A1, “Therapeutic formulations for the treatment of beta-amyloid related diseases” (priority 2002, published 2005)
Like-named read-outs stand apart in the source and are kept apart here.

Tests used:
[1] = test system: SM-4 cells; details: cited from earlier work
[2] = test system: mild and moderate Alzheimer's disease patients; assay: Change in ADAS-Cog score of Alzheimer's patients over nine months of treatment; format: in vivo, human; details: Mild + Moderate AD patients combined, observed, negative change = improvement
Source text: In this example, mild and moderate patients have been treated with an alkanesulfonic acid, namely 3-amino-1-propanesulfonic acid, in combination with other therapeutic compounds used to diminish symptoms characteristic of Alzheimer's disease (e.g., loss of cognitive functions). The examples comprise the use of an alkanesulfonic acid in combination with cognitive enhancers such as acetylcholine esterase inhibitors (“AChEi”). The effect of these combination therapies on the change in ADAS-cog score in the patients was determined.
Patients were treated with the test alkanesulfonic acid for a period of 9 months. A group of patients received the test compound alone while another group were treated with the test compound in combination with an AChEi, namely donepezil.
Effect on ADAS-Cog. Upon entering the study, Alzheimer's patients were categorized as being “mild” or “moderate” according to their MMSE (“Mini Mental State Examination”) score. B.W.Rover, et al., “Mini-mental state exam in clinical practice.” Hospital Practice 22(1 A), 99 et seq. (1987). (According to this examination a MMSE score in the range of 19 to 26 was considered “mild,” and a score in the range 13 to 18 was considered “moderate”). Then, the change in mental function of these patients was analyzed by using their ADAS-Cog scores, which were recorded periodically over a nine month period. […]

[3] = test system: Aβ CSF concentration; assay: Aβ CSF concentration of patients at time 0 and 3 months (FPLC, ELISA); format: in vivo, human; details: for effect on CSF level of Aβ: 3-month period
Description: The alkanesulfonic acid used in the study is known to have an effect on the concentration of Aβ in the brain. We also determined the effect of test compound on the change in Aβ CSF levels of patients with mild to moderate Alzheimer's disease compared to that seen in patients treated with a triple combination of test compound with AChEi and statin.
Patients treated with alkanesulfonic acid test compound in the presence or absence of AChEi and statin were evaluated for their Aβ CSF concentration at time 0 and 3 months following the initiation of treatment with the alkanesulfonic acid. The change in AP42 CSF concentration was compared to the respective placebo group.
(§1) Methodology. CSF was obtained from patients before and after treatment with the test compound at daily doses of 100 mg, 200 mg, or 300 mg. CSF was fractionated by FPLC following treatment with formic acid, and then the Aβ containing fraction was lyophilised. The amount of Aβ peptide was measured using an ELISA assay (Biosource). […] The presence of the alkanesulfonic acid in the CSF was determined in patients who had received treatment for three months. In these patients, CSF was collected five hours following dosing, and levels of alkanesulfonic acid were determined by LC-MS/MS.

[4] = Presence of the alkanesulfonic acid in CSF of patients (LC-MS/MS); format: in vivo, human; details: patients treated three months, CSF collected five hours following dosing, 100, 200 or 300 mg daily
Description: as §1

[5] = test system: AP42 in the brain; details: transgenic mice; previously shown; cited from earlier work
[6] = test system: mild and moderate Alzheimer's disease patients; details: reference value, cited from earlier work
[7] = test system: amyloid deposits; details: mice genetically prone to overproduce amyloid-β; nine week period; cited from earlier work

Compound: Cc1cccc(Nc2cc(Cl)nc(SCC(=O)O)n2)c1C [pirinixic acid]
- Aβ42 production or release from SM-4 cells ([1]; concentration-dependent manner): decrease in Aβ42 production or release

Compound: NCCCS(=O)(=O)O [Test compound, 3-amino-1-propanesulfonic acid]
- Change in ADAS-Cog over 9 months [2]: −0.5 observed
- Change in ADAS-Cog over 9 months ([2]; listed as test compound): −0.5
- effect on CSF level of Aβ ([3]; 100 mg daily doses, majority of patients): stable Aβ CSF levels
- effect on CSF level of Aβ ([3]; 200 or 300 mg daily doses): reduce the CSF level of Aβ
- decrease in Aβ CSF concentration ([3]; mild to moderate AD patients, time 0 vs 3 months after start of treatment): 34%
- difference in change of Aβ CSF concentration compared to the respective control group ([3]; vs placebo (test compound) or vs AChEi and statin (triple therapy), 3 months): 49%
- presence of the alkanesulfonic acid in CSF [4]: present in CSF of patients in a dose-dependent manner
- levels of soluble and insoluble AP42 in the brain [5]: decrease the levels of both soluble and insoluble AP42

Compound: CCOC(=O)C(C)(C)Oc1ccc(Cl)cc1 [clofibrate, ethyl 2-(p-chlorophenoxy)-2-methylpropionate]
- Aβ42 extracellular levels ([1]; SM-4 cells, concentration range of 50-500 μM): increase Aβ42 extracellular levels

Compound: COc1cc2c(cc1OC)C(=O)C(CC1CCN(Cc3ccccc3)CC1)C2 (centres unmarked) [AchEi, donepezil]
- Change in ADAS-Cog over 9 months ([6]; Mild AD patient group): +5.0 reference
- Change in ADAS-Cog over 9 months ([6]; Moderate AD patient group): +2.5 reference

Compound: Oc1c(I)cc(Cl)c2cccnc12 [Clioquinol, 5-chloro-7-iodo-8-hydroxyquinoline]
- adverse effects [7]: no adverse effects
- amyloid deposits [7]: cut amyloid deposits in half
